Experimental findings from patent US12005064B2, “Pharmaceutical composition comprising non-ionic surfactants” (priority 2014, dated 2024) are described below.

The nature of series [1]: Solubility in water. Conditions: across the whole pH range. It counts as physicochemical.
Series [2] is described as follows: Solubility in excipients. It counts as physicochemical. Conditions: diverse set of excipients, covering an HLB range of 1 to 20 and above.

On to `CCc1cc2c(cc1N1CCC(N3CCOCC3)CC1)C(C)(C)c1[nH]c3cc(C#N)ccc3c1C2=O` [9-ethyl-6,6-dimethyl-8-(4-morpholin-4-yl-piperidin-1-yl)-11-oxo-6,11-dihydro-5H-benzo[b]carbazole-3-carbonitrile], for which the solubility in water entry in series [1] is listed as “practically insoluble in water”. The solubility in excipients result in series [2] is “poorly soluble”.
